Earlier results on three compounds are cited in US6515132B2, “Process for the preparation of rosiglitazone maleate” (priority 2000, dated 2003).

For this data set the following is noted: dose given in diet; comparative activity data for thiazolidinediones being clinically progressed.
In the case of `CN(CCOc1ccc(CC2SC(=O)NC2=O)cc1)c1ccccn1.O=C(O)/C=C\C(=O)O` (stereo not drawn) [Rosiglitazone maleate, 5-[4-[2-(N-methyl-N-(2-pyridyl)amino)ethoxy]benzyl]thiazolidine-2,4-dione maleate], the Minimum effective dose is 3 μmol/kg diet. On to `CN(CCOc1ccc(CC2SC(=O)NC2=O)cc1)c1ccccn1` (stereo not drawn) [Rosiglitazone, 5-[4-[2-(N-methyl-N-(2-pyridyl)amino)ethoxy]benzyl]thiazolidine-2,4-dione], for which the Minimum effective dose was 3 μmol/kg diet. Consider `O=C1NC(=O)C(Cc2ccc3c(c2)CC[C@H](Cc2ccccc2)O3)S1` (stereo partly drawn) [Englitazone], for which the Minimum effective dose is given as 200 μmol/kg diet.
